Results: patent US20060281818A1, “Method for treating mucosal disorders” (SUCAMPO AG, NORTH CAROLINA STATE UNIVERSITY, priority 2005, published 2006)
Entries after “also recorded” stand apart in the source; their conditions may differ. Marks after values point to notes of the source that are not given here.

How the values were obtained:
[1] = test system: ischemia-injured porcine ileum; assay: Mucosal-to-serosal 3H-mannitol flux in Ussing chamber; format: cell-based; conditions: 1 μM; n=4; P<0.05
Protocol: Six to eight-week-old Yorkshire crossbred pigs of either sex were housed individually, and maintained on a commercial pelleted feed. Pigs were held off feed for 24 hours prior to experimental surgery. General anesthesia was induced with xylazine (1.5 mg/kg, IM), ketamine (11 mg/kg, IM), and thiopental (15 mg/kg, IV) and was maintained with intermittent infusion of thiopental (6-8 mg/kg/hr). Pigs were placed on a heating pad and ventilated with 100% O2 via a tracheotomy using a time-cycled ventilator. The jugular vein and carotid artery were cannulated and blood gas analysis was performed to confirm normal pH and partial pressures of CO2 and O2. […]
Following the 45-minute ischemic period, tissues were harvested from the pig and the mucosa was stripped from the seromuscular layer in oxygenated (95% O2/ 5% CO2) Ringer's solution (mmol/l: Na^+, 154; K+, 6.3; Cl^−, 137; HCO3^−, 24; pH 7.4) containing 5×10^−6 M indomethacin to prevent endogenous PG production during the stripping procedure. […] The spontaneous potential difference (PD) was measured using Ringer-agar bridges connected to calomel electrodes, and the PD was short-circuited through Ag—AgCl electrodes using a voltage clamp that corrected for fluid resistance. Transepithelial electrical resistance (Ω.cm^2) was calculated from the spontaneous PD and short-circuit current (Isc). […]

[2] = test system: ischemia-injured porcine ascending colon; assay: Ussing chamber: short circuit current and TER in colon; format: cell-based; conditions: ischemic porcine ascending colon
Text: (§1) According to the same procedure described in Example 1 except for using colon instead of ileum, recovery of mucosal barrier function in ischemic condition by the COMPOUND A was investigated.
(§2) A) Change in short circuit current response to COMPOUND A in ischemia-injured porcine ascending colon, B) Trans epithelial electrical resistance (TER) in response to COMPOUND A in ischemia-injured porcine ascending colon and C) Serosal to mucosal ^3H-mannitol fluxes in response to COMPOUND A in ischemia-injured porcine ascending colon were shown in FIGS. 4 to 6 respectively.

[3] = test system: ischemic-injured porcine ileal mucosa; assay: Morphometric assessment of epithelial restitution (histological examination); format: cell-based; conditions: Indo 5 μM, COMPOUND A 1 μM, mean±SE, n=3
Protocol: (§3) Six to eight-week-old Yorkshire crossbred pigs of either sex were housed individually, and maintained on a commercial pelleted feed. Pigs were held off feed for 24 hours prior to experimental surgery. General anesthesia was induced with xylazine (1.5 mg/kg, IM), ketamine (11 mg/kg, IM), and thiopental (15 mg/kg, IV) and was maintained with intermittent infusion of thiopental (6-8 mg/kg/hr). Pigs were placed on a heating pad and ventilated with 100% O2 via a tracheotomy using a time-cycled ventilator. The jugular vein and carotid artery were cannulated and blood gas analysis was performed to confirm normal pH and partial pressures of CO2 and O2. Lactated Ringers solution was administered intravenously at a maintenance rate of 15 ml/kg/hr. The ileum was approached via ventral midline incision. Ileal segments were delineated by ligating the intestine at 10 cm intervals, and subjected to ischemia by occluding the local mesenteric blood supply for 45 minutes.
Tissues were taken at 0, 60, and 180 minutes for routine histologic evaluation. Tissues were sectioned (5 μm) and stained with hematoxylin and eosin. For each tissue, 3 sections were evaluated. Four well oriented villi and crypts were identified in each section. Villus length was obtained using a micrometer in the eye piece of a light microscope. In addition, the height of the epithelial-covered portion of each villus was measured. The surface area of the villus was calculated using the formula for the surface area of a cylinder. The formula was modified by subtracting the area of the base of the villus, and multiplying by a factor accounting for the variable position at which each villus was cross-sectioned (Gastroenterology 1993; 104:440-471). The percentage of the villous surface area that remained denuded was calculated from the total surface area of the villus and the surface area of the villus covered by epithelium. The percent denuded villous surface area was used as an index of epithelial restitution.
In table 1, values represents means±SE for % villus surface area denuded and Villus height; n=3. Tissues were mammalian ileum subjected to 45 min ischemia in vivo, after which they were mounted in Ussing chambers for monitoring of recovery responses. Tissues were harvested at 0 min, 60 min, and 180 min post-ischemia during the in vitro recovery phase, fixed in 10% buffered formalin, and processed for histological examination according to standard protocols. Indomethacin (Indo) was administered to select tissues a 5 μM, and COMPOUND A was given at 1 μM. Values lacking common superscript.(*,#) differ by P<0.05.

[4] = test system: ischemia-injured porcine ileum; assay: Ussing chamber: short circuit current (Isc) and transepithelial electrical resistance (TER); format: cell-based; conditions: for absolute change in Isc (Δ Isc): mean±SE
Protocol: as §3
Following the 45-minute ischemic period, tissues were harvested from the pig and the mucosa was stripped from the seromuscular layer in oxygenated (95% O2/ 5% CO2) Ringer's solution (mmol/l: Na^+, 154; K+, 6.3; Cl^−, 137; HCO3^−, 24; pH 7.4) containing 5×10^−6 M indomethacin to prevent endogenous PG production during the stripping procedure. Tissues were then mounted in 3.14 cm^2 aperture Ussing chambers. For Ussing chamber experiments, ileal tissues from one pig were mounted on multiple Ussing chambers and subjected to different in vitro treatments. Tissues were bathed on the serosal and mucosal sides with 10 ml Ringer's solution. The serosal bathing solution contained 10 mM glucose, and was osmotically balanced on the mucosal side with 10 mM mannitol. Bathing solutions were oxygenated (95% O2/5% CO2) and circulated in water-jacketed reservoirs. The spontaneous potential difference (PD) was measured using Ringer-agar bridges connected to calomel electrodes, and the PD was short-circuited through Ag—AgCl electrodes using a voltage clamp that corrected for fluid resistance. Transepithelial electrical resistance (Ω.cm^2) was calculated from the spontaneous PD and short-circuit current (Isc). If the spontaneous PD was between −1.0 and 1.0 mV, tissues were current clamped at ±100 μA for 5 seconds and the PD recorded. Short-circuit current and PD were recorded at 15-minute intervals over a 4-hour experiment.
After tissues were mounted on Ussing chambers, tissues were allowed to acclimate for a period of 30 minutes to achieve stable baseline measurements. Tissues were then treated with varying doses of COMPOUND A (13,14-dihydro-15-keto-16,16-difluoro-PGE1) (0.01 μM, 0.1 μM, and 1 μM) by adding the compound to the mucosal bathing solution (t=30 min).
Data were reported as means±SE. All data were analyzed by using an ANOVA for repeated measures, except where the peak response was analyzed by using a standard one-way ANOVA (Sigmastat, Jandel Scientific, San Rafael, Calif.). A Tukey's test was used to determine differences between treatments following ANOVA.

[5] = test system: ischemia-injured porcine ascending colon; assay: Serosal to mucosal 3H-mannitol fluxes in colon; format: cell-based; conditions: ischemic porcine ascending colon, FIG. 6
Text: as §1, §2

mammary carcinoma = assay: Incidence of mammary carcinoma, 104-week oral gavage study; format: in vivo; conditions: 104 weeks, female rats
Protocol: Female Crl:CD(SD)IGS BR VAF/Plus rats were assigned to 4 study groups (65/group). Groups 2 through 4 received 20, 100, or 400 μg/kg/day of COMPOUND A, respectively, by oral gavage for 104 weeks. The control group (Group 1) received 10 the vehicle, a 1% aqueous solution of Polysorbate 80. The dose volume was 5 mL/kg/day for all groups. When unscheduled death of animal occurred during the study period, a necropsy was performed on the animal. After 104 weeks of treatment, all surviving animals were sacrificed and necropsied. Each rat was evaluated microscopically for the occurrence of mammary carcinoma.

barrier function = conditions: Am. J. Physiol. Gastrointest. Liver Physiol. 281:G375-81, 2001; cited from earlier work
[6] = 1 μM applied to mucosal side, indomethacin 5×10^−6 M Ringer's, P<0.01

CCCCC(F)(F)C(=O)CCC1C(O)CC(=O)C1CCCCCCC(=O)O (centres unmarked) [COMPOUND A, 13,14-dihydro-15-keto-16,16-difluoro-PGE1]
3H-mannitol mucosal-to-serosal flux (result in words) [1]: return of ^3H-mannitol flux to non-ischemic control levels; also recorded: reduced ^3H-mannitol mucosal-to-serosal fluxes to non-ischemic control levels | Isc (result in words) ([2]; FIG. 4): increased Isc | TER (result in words) ([2]; FIG. 5): increased | Epithelial surface area denuded (%) ([3]; recovery time 60 min): 4.2 ± 2.5* % | Villus height (mm) ([3]; recovery time 60 min): 0.21 ± 0.02* mm | Epithelial surface area denuded (%) ([3]; recovery time 180 min): 0 ± 0** % | Villus height (mm) ([3]; recovery time 180 min): 0.20 ± 0.01* mm | TER (result in words) ([4]; 0.01 μM, 0.1 μM and 1 μM applied to mucosal side): dose-dependent increases in TER | absolute change in Isc (Δ Isc) ([4]; 0.01 μM): 2±0.8 | transepithelial electrical resistance (TER) (FIG. 1 legend, words) ([4]; 0.1 μM and 1 μM doses, added after 30-min equilibration, n=6): marked elevations in transepithelial electrical resistance (TER) | Isc, electrogenic Cl− secretion (result in words) ([4]; 0.1 μM and 1 μM, dose-dependent): sharp and significant (P<0.05) peaks in Isc | absolute change in Isc (Δ Isc) ([4]; 0.1 μM): 16±4.5 | increase in TER [4, 6]: 2 fold | ΔTER [4, 6]: 26 Ω | absolute change in Isc (Δ Isc) ([4]; 1 μM): 29±5.1 | Cl− secretion indicated by Isc and ΔIsc (FIG. 2 legend, words) ([4]; increasing doses, n=6): Significant (P<0.05) increases in Cl^− secretion | serosal-to mucosal fluxes of 3H-mannitol (result in words) [5]: recuded serosal-to mucosal fluxes of ^3H-mannitol | Number of animals with mammary carcinoma (mammary carcinoma; 20 μg/kg/day oral gavage, 65 examined (control 12 of 65)): 6 | Number of animals with mammary carcinoma (mammary carcinoma; 100 μg/kg/day oral gavage, 65 examined (control 12 of 65)): 5 | Number of animals with mammary carcinoma (mammary carcinoma; 400 μg/kg/day oral gavage, 63 examined (control 12 of 65)): 4 | incidence of mammary carcinoma (result in words) (mammary carcinoma; 20, 100 or 400 μg/kg/day oral gavage): reduced the incidence of mammary carcinoma

COc1ccc2c(c1)c(CC(=O)O)c(C)n2C(=O)c1ccc(Cl)cc1 [Indo, Indomethacin, reference compound]
Epithelial surface area denuded (%) ([3]; recovery time 60 min): 6.6 ± 2.6* % | Villus height (mm) ([3]; recovery time 60 min): 0.16 ± 0.01* mm | Epithelial surface area denuded (%) ([3]; recovery time 180 min): 0 ± 0** % | Villus height (mm) ([3]; recovery time 180 min): 0.14 ± 0.03* mm

deoxy-PGE1
effects on barrier function (result in words) (barrier function): had not effects
